The values that follow are results of earlier work, collected in paper PMC5278571, “Optimal doses of caspofungin during continuous venovenous hemodiafiltration in critically ill patients” (Critical Care, 2017).

Converted amounts (≈) assume the structure as drawn.

The subject of one data set is Candida. To be noted: MIC taken for the PK/PD target calculation; cited from earlier work. The method, then:
(§1) Taking into account a MIC of 0.1 mg/L [4], and using the target pharmacokinetics/pharmacodynamics (PK/PD) described for micafungin, we would have reac ...

Data set [1] relates to Candida and Aspergillus spp., including Candida parapsilosis. The conditions noted are these: published MIC90s; cited from earlier work. The method, then: as §1

The MIC is the smallest concentration in the dilution series that meets the test's criterion for growth inhibition. What is called MIC90 is the lowest concentration that inhibits either 90% of growth or 90% of the strains tested, depending on the study. In the case of `CC[C@H](C)C[C@H](C)CCCCCCCCC(=O)N[C@H]1C[C@@H](O)[C@@H](NCCN)NC(=O)[C@@H]2[C@@H](O)CCN2C(=O)[C@H]([C@H](O)CCN)NC(=O)[C@H]([C@H](O)[C@@H](O)c2ccc(O)cc2)NC(=O)[C@@H]2C[C@@H](O)CN2C(=O)[C@H]([C@@H](C)O)NC1=O` [caspofungin], in the data set on Candida, the MIC is 0.1 µg/mL (≈ 0.0915 µM). Besides, in data set [1], the MIC90 was 2 µg/mL (≈ 1.83 µM).
